Test system: IGROV1 complex spheroids (HUVEC, MSC), viability % test/control
Test: Anticancer human tumor IGROV1 cell line growth inhibition [GQUAD];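 further: spheroids exposed to compounds for 7 days before readout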;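 on viability, T/C: 100% = DMSO vehicle control viability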
Settings: for IC50: curve of first compound; for viability, T/C: stronger effect = lower value
In short: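 Tumor cells were grown as complex spheroids with HUVEC endothelial cells and mesenchymal stem cells as stroma. G-quadruplex stabilizers were combined with targeted agents over half-log dilutions from near the clinical Cmax, or from 10 microM.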

[1] = second compound 0.0316 µM, first compound 0.0316 µM
[2] = second compound 0.0316 µM, first compound 0.1 µM
[3] = second compound 0.0316 µM, first compound 0.316 µM
[4] = second compound 0.0316 µM, first compound 1 µM
[5] = second compound 0.0316 µM, first compound 3.16 µM
[6] = second compound 0.0316 µM, first compound 10 µM
[7] = second compound 0.1 µM, first compound 0.0316 µM
[8] = second compound 0.1 µM, first compound 0.1 µM
[9] = second compound 0.1 µM, first compound 0.316 µM
[10] = second compound 0.1 µM, first compound 1 µM
[11] = second compound 0.1 µM, first compound 3.16 µM
[12] = second compound 0.1 µM, first compound 10 µM
[13] = second compound 0.316 µM, first compound 0.0316 µM
[14] = second compound 0.316 µM, first compound 0.1 µM
[15] = second compound 0.316 µM, first compound 0.316 µM
[16] = second compound 0.316 µM, first compound 1 µM
[17] = second compound 0.316 µM, first compound 3.16 µM
[18] = second compound 0.316 µM, first compound 10 µM
[19] = second compound 1 µM, first compound 0.0316 µM
[20] = second compound 1 µM, first compound 0.1 µM
[21] = second compound 1 µM, first compound 0.316 µM
[22] = second compound 1 µM, first compound 1 µM
[23] = second compound 1 µM, first compound 3.16 µM
[24] = second compound 1 µM, first compound 10 µM
[25] = second compound 3.16 µM, first compound 0.0316 µM
[26] = second compound 3.16 µM, first compound 0.1 µM
[27] = second compound 3.16 µM, first compound 0.316 µM
[28] = second compound 3.16 µM, first compound 1 µM
[29] = second compound 3.16 µM, first compound 3.16 µM
[30] = second compound 3.16 µM, first compound 10 µM
[31] = second compound 10 µM, first compound 0.0316 µM
[32] = second compound 10 µM, first compound 0.1 µM
[33] = second compound 10 µM, first compound 0.316 µM
[34] = second compound 10 µM, first compound 1 µM
[35] = second compound 10 µM, first compound 3.16 µM
[36] = second compound 10 µM, first compound 10 µM

`CCCS(=O)(=O)Nc1ccc(F)c(C(=O)c2c[nH]c3ncc(-c4ccc(Cl)cc4)cc23)c1F` + CN(C)c1ccc(Nc2c3ccc(NC(=O)CCN4CCCC4)cc3nc3cc(NC(=O)CCN4CCCC4)ccc23)cc1 was tested, and the IC50 (second compound 0.0316 µM) was 5670 nM, the IC50 (second compound 0.1 µM) was 5610 nM and the IC50 (second compound 0.316 µM) was 5390 nM. The IC50 (second compound 1 µM) was 5190 nM, the IC50 (second compound 3.16 µM) was 4480 nM and the IC50 (second compound 10 µM) was 1460 nM. It also gave a viability, T/C [1] of 103%, a viability, T/C [2] of 84.7% and a viability, T/C [3] of 112%. For the same molecule, the viability, T/C [4] was 79.3%, the viability, T/C [5] was 86.7% and the viability, T/C [6] was 17.7%. It also gave a viability, T/C [7] of 103%, a viability, T/C [8] of 73.7% and a viability, T/C [9] of 90.4%. The viability, T/C [10] was 72%, the viability, T/C [11] was 83.5% and the viability, T/C [12] was 16.2%. For the same molecule, the viability, T/C [13] was 86.2%, the viability, T/C [14] was 99.7% and the viability, T/C [15] was 98%. For the same molecule, the viability, T/C [16] was 80.5%, the viability, T/C [17] was 82.3% and the viability, T/C [18] was 15.1%. The viability, T/C [19] was 57.9%, the viability, T/C [20] was 97.9% and the viability, T/C [21] was 88%. It also gave a viability, T/C [22] of 89.3%, a viability, T/C [23] of 77.7% and a viability, T/C [24] of 13.2%. It also gave a viability, T/C [25] of 78.1%, a viability, T/C [26] of 88.7% and a viability, T/C [27] of 82.4%. For the same molecule, the viability, T/C [28] was 96.2%, the viability, T/C [29] was 67.4% and the viability, T/C [30] was 9.77%. For the same molecule, the viability, T/C [31] was 53.1%, the viability, T/C [32] was 59.3% and the viability, T/C [33] was 60.7%. The viability, T/C [34] was 67.9%, the viability, T/C [35] was 29.2% and the viability, T/C [36] was 3.73%.
In the case of `COc1ncnc(C2CC2)c1-c1ncc2cnn(Cc3ccc(-c4nc(C(F)(F)F)cn4C(C)C)cc3)c2n1` + CN(C)c1ccc(Nc2c3ccc(NC(=O)CCN4CCCC4)cc3nc3cc(NC(=O)CCN4CCCC4)ccc23)cc1, the IC50 (second compound 0.0316 µM) is reported as over 10000 nM, the IC50 (second compound 0.1 µM) is reported as over 10000 nM and the IC50 (second compound 0.316 µM) is reported as over 10000 nM. It also gave an IC50 (second compound 1 µM) of over 10000 nM, an IC50 (second compound 3.16 µM) of over 10000 nM and an IC50 (second compound 10 µM) of 237 nM. For the same molecule, the viability, T/C [1] was 93.5%, the viability, T/C [2] was 99% and the viability, T/C [3] was 95.3%. For the same molecule, the viability, T/C [4] was 89.2%, the viability, T/C [5] was 104% and the viability, T/C [6] was 83.2%. It also gave a viability, T/C [7] of 86.9%, a viability, T/C [8] of 93% and a viability, T/C [9] of 94.1%. It also gave a viability, T/C [10] of 78.2%, a viability, T/C [11] of 100% and a viability, T/C [12] of 82.2%. For the same molecule, the viability, T/C [13] was 77.3%, the viability, T/C [14] was 88.4% and the viability, T/C [15] was 103%. The viability, T/C [16] was 79.2%, the viability, T/C [17] was 93.2% and the viability, T/C [18] was 82.2%. For the same molecule, the viability, T/C [19] was 66.5%, the viability, T/C [20] was 89.1% and the viability, T/C [21] was 98.7%. The viability, T/C [22] was 74%, the viability, T/C [23] was 83.4% and the viability, T/C [24] was 80.9%. For the same molecule, the viability, T/C [25] was 52.1%, the viability, T/C [26] was 69.2% and the viability, T/C [27] was 75.3%. The viability, T/C [28] was 88.8%, the viability, T/C [29] was 75% and the viability, T/C [30] was 62.5%. The viability, T/C [31] was 50%, the viability, T/C [32] was 53% and the viability, T/C [33] was 51.5%. The viability, T/C [34] was 41.6%, the viability, T/C [35] was 37.7% and the viability, T/C [36] was 9.91%.
Work on `Cc1[nH]c2ccccc2c1CCNCc1ccc(/C=C/C(=O)NO)cc1` + CN(C)c1ccc(Nc2c3ccc(NC(=O)CCN4CCCC4)cc3nc3cc(NC(=O)CCN4CCCC4)ccc23)cc1 yielded an IC50 (second compound 0.0316 µM) of 19.1 nM, an IC50 (second compound 0.1 µM) of 10.2 nM and an IC50 (second compound 0.316 µM) of 22.7 nM. It also gave an IC50 (second compound 1 µM) of 14.7 nM, an IC50 (second compound 3.16 µM) of 12.4 nM and an IC50 (second compound 10 µM) of 11.7 nM. It also gave a viability, T/C (second compound 0.0316 µM, first compound 0.000999 µM) of 104%, a viability, T/C (second compound 0.0316 µM, first compound 0.00316 µM) of 84.2% and a viability, T/C (second compound 0.0316 µM, first compound 0.00999 µM) of 79.3%. For the same molecule, the viability, T/C [1] was 28.5%, the viability, T/C (second compound 0.0316 µM, first compound 0.0999 µM) was 4.27% and the viability, T/C [3] was 0.32%. For the same molecule, the viability, T/C (second compound 0.1 µM, first compound 0.000999 µM) was 84.3%, the viability, T/C (second compound 0.1 µM, first compound 0.00316 µM) was 67.5% and the viability, T/C (second compound 0.1 µM, first compound 0.00999 µM) was 51.4%. The viability, T/C [7] was 30.1%, the viability, T/C (second compound 0.1 µM, first compound 0.0999 µM) was 3.89% and the viability, T/C [9] was 0.33%. It also gave a viability, T/C (second compound 0.316 µM, first compound 0.000999 µM) of 77.1%, a viability, T/C (second compound 0.316 µM, first compound 0.00316 µM) of 77.7% and a viability, T/C (second compound 0.316 µM, first compound 0.00999 µM) of 70.1%. The viability, T/C [13] was 42.1%, the viability, T/C (second compound 0.316 µM, first compound 0.0999 µM) was 4.59% and the viability, T/C [15] was 0.38%. It also gave a viability, T/C (second compound 1 µM, first compound 0.000999 µM) of 65.2%, a viability, T/C (second compound 1 µM, first compound 0.00316 µM) of 89% and a viability, T/C (second compound 1 µM, first compound 0.00999 µM) of 54.2%. For the same molecule, the viability, T/C [19] was 31.2%, the viability, T/C (second compound 1 µM, first compound 0.0999 µM) was 5.62% and the viability, T/C [21] was 0.2%. For the same molecule, the viability, T/C (second compound 3.16 µM, first compound 0.000999 µM) was 64%, the viability, T/C (second compound 3.16 µM, first compound 0.00316 µM) was 82.1% and the viability, T/C (second compound 3.16 µM, first compound 0.00999 µM) was 48.8%. It also gave a viability, T/C [25] of 29.6%, a viability, T/C (second compound 3.16 µM, first compound 0.0999 µM) of 4.53% and a viability, T/C [27] of 0.37%. For the same molecule, the viability, T/C (second compound 10 µM, first compound 0.000999 µM) was 53%, the viability, T/C (second compound 10 µM, first compound 0.00316 µM) was 55.4% and the viability, T/C (second compound 10 µM, first compound 0.00999 µM) was 56.6%. For the same molecule, the viability, T/C [31] was 18.1%, the viability, T/C (second compound 10 µM, first compound 0.0999 µM) was 4.24% and the viability, T/C [33] was 0.47%.
For `O=C(NO)c1cnc(N2CCN(S(=O)(=O)c3ccc4ccccc4c3)CC2)nc1` + CN(C)c1ccc(Nc2c3ccc(NC(=O)CCN4CCCC4)cc3nc3cc(NC(=O)CCN4CCCC4)ccc23)cc1, the IC50 (second compound 0.0316 µM) was 60.1 nM, the IC50 (second compound 0.1 µM) was 63.6 nM and the IC50 (second compound 0.316 µM) was 55.6 nM. The IC50 (second compound 1 µM) was 41.4 nM, the IC50 (second compound 3.16 µM) was 47.2 nM and the IC50 (second compound 10 µM) was under 31.6 nM. It also gave a viability, T/C [1] of 69.9%, a viability, T/C [2] of 34.2% and a viability, T/C [3] of 4.85%. For the same molecule, the viability, T/C [4] was 0.26%, the viability, T/C [5] was 0.09% and the viability, T/C [6] was 0.1%. For the same molecule, the viability, T/C [7] was 74.8%, the viability, T/C [8] was 33.9% and the viability, T/C [9] was 4.46%. The viability, T/C [10] was 0.26%, the viability, T/C [11] was 0.07% and the viability, T/C [12] was 0.09%. It also gave a viability, T/C [13] of 66.6%, a viability, T/C [14] of 32.6% and a viability, T/C [15] of 5.36%. It also gave a viability, T/C [16] of 0.25%, a viability, T/C [17] of 0.06% and a viability, T/C [18] of 0.08%. The viability, T/C [19] was 58%, the viability, T/C [20] was 23.6% and the viability, T/C [21] was 3.31%. For the same molecule, the viability, T/C [22] was 0.23%, the viability, T/C [23] was 0.06% and the viability, T/C [24] was 0.08%. The viability, T/C [25] was 64.3%, the viability, T/C [26] was 23.4% and the viability, T/C [27] was 3.69%. For the same molecule, the viability, T/C [28] was 0.27%, the viability, T/C [29] was 0.07% and the viability, T/C [30] was 0.08%. The viability, T/C [31] was 45.4%, the viability, T/C [32] was 14.4% and the viability, T/C [33] was 3.73%. It also gave a viability, T/C [34] of 0.21%, a viability, T/C [35] of 0.12% and a viability, T/C [36] of 0.11%.
